Results as given in US4394446A, “Process for the preparation of the antibiotic oxanosine” (Zaidan Hojin Biseibutsu Kagaku Kenkyu Kai, priority 1980, dated 1983).
In brackets after ≈: the same amount, converted by molar mass. Entries after “also recorded” stand apart in the source; their conditions may differ.

Columns and labels:
[1] = system: Staphylococcus aureus FDA 209P; assay: Antimicrobial spectrum in 0.5% peptone agar; type: cell-based; details: FDA209P, read-out: Minimum Growth Inhibition Concentration
[2] = system: Staphylococcus aureus, Smith strain; assay: Antimicrobial spectrum in 0.5% peptone agar; type: cell-based; details: read-out: Minimum Growth Inhibition Concentration
[3] = system: Micrococcus flavis FDA 16; assay: Antimicrobial spectrum in 0.5% peptone agar; type: cell-based; details: FDA16, read-out: Minimum Growth Inhibition Concentration
[4] = system: Bacillus subtilis PCI 219; assay: Antimicrobial spectrum in 0.5% peptone agar; type: cell-based; details: PCI219, read-out: Minimum Growth Inhibition Concentration
[5] = system: Bacillus subtilis NRRLB-558; assay: Antimicrobial spectrum in 0.5% peptone agar; type: cell-based; details: NRRLB558, read-out: Minimum Growth Inhibition Concentration
Sarcina lutea PCI 1001 = assay: Antimicrobial spectrum in 0.5% peptone agar; type: cell-based; details: Micrococcus luteus, PCI1001, read-out: Minimum Growth Inhibition Concentration
[6] = system: Corynebacterium bovis 1810; assay: Antimicrobial spectrum in 0.5% peptone agar; type: cell-based; details: read-out: Minimum Growth Inhibition Concentration
Escherichia coli NIHJ = assay: Antimicrobial spectrum in 0.5% peptone agar; type: cell-based; details: read-out: Minimum Growth Inhibition Concentration
Escherichia coli K-12 [7] = assay: Antimicrobial spectrum in 0.5% peptone agar; type: cell-based; details: K12, read-out: Minimum Growth Inhibition Concentration
[8] = system: Escherichia coli ML1629 (multi-resistant strain); assay: Antimicrobial spectrum in 0.5% peptone agar; type: cell-based; details: read-out: Minimum Growth Inhibition Concentration
[9] = system: Shigella dysenteriae JS 11910; assay: Antimicrobial spectrum in 0.5% peptone agar; type: cell-based; details: JS11910, read-out: Minimum Growth Inhibition Concentration
[10] = system: Shigella flexneri 4B JS 11811; assay: Antimicrobial spectrum in 0.5% peptone agar; type: cell-based; details: 4BJS11811, read-out: Minimum Growth Inhibition Concentration
Shigella sonnei JS 11746 = assay: Antimicrobial spectrum in 0.5% peptone agar; type: cell-based; details: JS11746, read-out: Minimum Growth Inhibition Concentration
Salmonella typhi T-63 = assay: Antimicrobial spectrum in 0.5% peptone agar; type: cell-based; details: Salmonella enterica, read-out: Minimum Growth Inhibition Concentration
[11] = system: Salmonella enteritidis 1891; assay: Antimicrobial spectrum in 0.5% peptone agar; type: cell-based; details: Salmonella enterica, read-out: Minimum Growth Inhibition Concentration
Proteus vulgaris OX 19 = assay: Antimicrobial spectrum in 0.5% peptone agar; type: cell-based; details: OX19, read-out: Minimum Growth Inhibition Concentration
[12] = system: Proteus mirabilis IFM OM-9; assay: Antimicrobial spectrum in 0.5% peptone agar; type: cell-based; details: IFMOM9, read-out: Minimum Growth Inhibition Concentration
Proteus rettgeri GN 311 = assay: Antimicrobial spectrum in 0.5% peptone agar; type: cell-based; details: Providencia rettgeri, GN311, read-out: Minimum Growth Inhibition Concentration
Proteus rettgeri GN 466 = assay: Antimicrobial spectrum in 0.5% peptone agar; type: cell-based; details: Providencia rettgeri, GN466, read-out: Minimum Growth Inhibition Concentration
Serratia marcescens = assay: Antimicrobial spectrum in 0.5% peptone agar; type: cell-based; details: read-out: Minimum Growth Inhibition Concentration
[13] = system: Pseudomonas aeruginosa A3; assay: Antimicrobial spectrum in 0.5% peptone agar; type: cell-based; details: read-out: Minimum Growth Inhibition Concentration
[14] = system: Klebsiella pneumoniae PCI 602; assay: Antimicrobial spectrum in 0.5% peptone agar; type: cell-based; details: PCI602, read-out: Minimum Growth Inhibition Concentration
Candida albicans 3147 = assay: Antimicrobial spectrum in 0.5% peptone agar; type: cell-based; details: read-out: Minimum Growth Inhibition Concentration
[15] = system: Mycobacterium smegmatis 607; assay: Antimicrobial spectrum in 0.5% peptone agar; type: cell-based; details: Mycolicibacterium smegmatis, read-out: Minimum Growth Inhibition Concentration
Gram-negative bacteria = assay: Antimicrobial spectrum, summary; type: cell-based; details: 0.5% peptone agar; words
Gram-positive bacteria = assay: Antimicrobial spectrum, summary; type: cell-based; details: 0.5% peptone agar; words
HeLa = assay: Anti-HeLa activity; type: cell-based; details: 72 hours' culturing
Procedure: *number of cells after 72 hours' culturing in the presence of oxanosine

Mouse Leukemia L-1210 = assay: Effect against mouse leukemia L-1210, life-prolonging effect; type: in vivo, mouse (female, CDF series); details: ip, once each day for 9 days
Procedure: Cells (1×10^5) of leukemia L-1210 were intraperitoneally implanted in each of several groups of 8-week-old female mice of the CDF series (5 mice for each group), a solution of oxanosine in a physiological saline solution was intraperitoneally administered once each day for 9 days, and the carcinostatic effect was evaluated based on the life-prolonging effect (T/C, %).

[16] = Acute toxicity in the mouse; type: in vivo; details: iv
Solubility in solvents = type: physicochemical
Escherichia coli K-12 [17] = assay: Titer by cup method on peptone-agar plate; type: cell-based; details: crystals; titer of culture filtrate designated as 1 u/ml
Procedure: Sakaguchi flasks (500 ml capacity) for a reciprocating type shaking machine were charged with 125 ml of a culture medium (pH value=7.0) comprising 1% of glucose, 1% of glycerol, 1% of sucrose, 0.5% of oat meal, 2% of soybean meal (Prorich supplied by Ajinomoto K.K.), 1% of pressed yeast (supplied by Oriental Kobo Kogyo K.K.), 0.5% of Casamino acid (supplied by Difco Co.) and 0.1% of calcium carbonate, and the culture medium was sterilized at 120° C. for 20 minutes in an autoclave. The culture medium in each was inoculated with one platinum loop of MG265-CF3 (Fermentation Research Institute Deposit No. 5735), and culturing was carried out for 2 days at 28° C. with shaking at 120 rpm. […] (The titer was determined according to the cup method using Escherichia coli K-12 as a test organism on peptone-agar plate, and the titer of the culture filtrate was designated as 1 u/ml.) The filtrate was passed through a column packed with 500 ml of active carbon powder for chromatography (supplied by Wako Junyaku) to absorb the oxanosine on the active carbon. […]

[18] = Carcinostatic activity (general statement); details: words
[19] = Antiviral activity (general statement); details: words, no test described

Nc1nc2c(ncn2[C@@H]2O[C@H](CO)[C@@H](O)[C@H]2O)c(=O)o1 [oxanosine]
MIC [1]: > 100 µg/mL
MIC [2]: > 100 µg/mL
MIC [3]: > 100 µg/mL
MIC [4]: > 100 µg/mL
MIC [5]: > 100 µg/mL
MIC (Sarcina lutea PCI 1001): > 100 µg/mL
MIC [6]: > 100 µg/mL
MIC (Escherichia coli NIHJ): > 100 µg/mL
MIC (Escherichia coli K-12 [7]): 12.5 µg/mL (≈ 44 µM)
MIC [8]: 25 µg/mL (≈ 88 µM)
MIC [9]: 25 µg/mL (≈ 88 µM)
MIC [10]: 6.25 µg/mL (≈ 22 µM)
MIC (Shigella sonnei JS 11746): 25 µg/mL (≈ 88 µM)
MIC (Salmonella typhi T-63): > 100 µg/mL
MIC [11]: > 100 µg/mL
MIC (Proteus vulgaris OX 19): 25 µg/mL (≈ 88 µM)
MIC [12]: 12.5 µg/mL (≈ 44 µM)
MIC (Proteus rettgeri GN 311): > 100 µg/mL
MIC (Proteus rettgeri GN 466): 12.5 µg/mL (≈ 44 µM)
MIC (Serratia marcescens): > 100 µg/mL
MIC [13]: > 100 µg/mL
MIC [14]: > 100 µg/mL
MIC (Candida albicans 3147): > 100 µg/mL
MIC [15]: > 100 µg/mL
growth-inhibiting action against Gram-negative bacteria (Gram-negative bacteria): relatively strong growth-inhibiting action; also recorded: relatively strong inhibitory activity
growth-inhibiting action against Gram-positive bacteria (Gram-positive bacteria): does not show growth-inhibiting action
Cells (HeLa; 0.1 mcg/ml): 11.70 × 10^5 /plate
Cells (HeLa; 1 mcg/ml): 10.31 × 10^5 /plate
Cells (HeLa; 10 mcg/ml): 8.68 × 10^5 /plate
Cells (HeLa; 100 mcg/ml): 1.08 × 10^5 /plate
inhibition at 0.1 µg/mL (HeLa; Homo sapiens, HeLa, 0.1 mcg/ml, read-out: Percent Inhibition): 1.76%
inhibition at 1 µg/mL (HeLa; Homo sapiens, HeLa, 1 mcg/ml, read-out: Percent Inhibition): 15.3%
inhibition at 10 µg/mL (HeLa; Homo sapiens, HeLa, 10 mcg/ml, read-out: Percent Inhibition): 31.2%
inhibition at 100 µg/mL (HeLa; Homo sapiens, HeLa, 100 mcg/ml, read-out: Percent Inhibition): 100%
IC50 (HeLa; Homo sapiens, HeLa): ~30.9 µg/mL (≈ 109 µM)
Life-Prolonging Effect (T/C, %) (Mouse Leukemia L-1210; 62.5 μg/mouse/day): 100%
Life-Prolonging Effect (T/C, %) (Mouse Leukemia L-1210; 125 μg/mouse/day): 120%
Life-Prolonging Effect (T/C, %) (Mouse Leukemia L-1210; 250 μg/mouse/day): 120%
Life-Prolonging Effect (T/C, %) (Mouse Leukemia L-1210; 500 μg/mouse/day): 153%
Life-Prolonging Effect (T/C, %) (Mouse Leukemia L-1210; 1000 μg/mouse/day): 160%
life-prolonging effect in leukemia L-1210 tumor-bearing mice (Mouse Leukemia L-1210; words): has a life-prolonging effect
LD50 ([16]; in vivo): > 200 mg/kg
acute toxicity compared with various known nucleic acid type antibiotic substances ([16]; words): lower than those of various known nucleic acid type antibiotic substances
Solubility in Solvents (Solubility in solvents; organic solvents such as ethanol, acetone, ethyl acetate (b147 only), ether, benzene): insoluble or only slightly soluble
Solubility in Solvents (Solubility in solvents; water, methanol and dimethylsulfoxide): Soluble
titer (Escherichia coli K-12 [17]): 117 u/mg
carcinostatic activity [18]: has carcinostatic and antiviral activity; also recorded: has carcinostatic and antiviral actions
antiviral activity [19]: has carcinostatic and antiviral activity; also recorded: has carcinostatic and antiviral actions
